Laboratory results: article PMC7880554 (ACS chemical biology, 2016)

Target: Culp1 (Rv1984c) (Mycobacterium tuberculosis, UniProt P9WP43)
Conditions: band identified by mass spectrometry; transposon mutant control

Culp1 (Rv1984c), sequence (P9WP43 33-217): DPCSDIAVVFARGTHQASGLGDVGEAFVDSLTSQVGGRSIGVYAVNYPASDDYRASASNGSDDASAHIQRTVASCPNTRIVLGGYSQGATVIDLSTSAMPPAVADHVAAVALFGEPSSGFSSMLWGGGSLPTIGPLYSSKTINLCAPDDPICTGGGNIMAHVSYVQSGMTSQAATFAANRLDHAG

## CCCCCCCC(=O)OCOc1ccc2c(c1)C(C)(C)C1=C(Cl)C(=O)C(Cl)=CC1=N2 [DDAO-7-OME]
  in-gel fluorogenic activity, native PAGE-resolved lysate: DDAO-7-OME provided the clearest Mtb banding patterns in these complex lysates and revealed Culp1 activity
